According to patent US20080020998A1, “Sustained release compositions for the therapeutic management of pain, inflammation and inflammation-associated disorders and prophylactic/ therapeutic methods thereof” (priority 2006, published 2008):

Legend:
[1] = tested on: patients with osteoarthritis of the knee; assay: Double blind, randomized study in osteoarthritis of the knee: VAS assessment of pain, stiffness and swelling; assay type: in vivo, human; conditions: twice-daily for 90 days, VAS scored 0 to 10, baseline vs end of 90 days
From the text: The institutional ethics committee approved the study protocol. Patients were recruited from the orthopaedic outpatient clinic of a tertiary care hospital. Consecutive outpatients of either sex, aged between 40-65 years in ARA functional class I, II or III and radiologically diagnosed to have osteoarthritis of the knee were identified. Clinically pain or discomfort should have been experienced in the affected knee on most days for the previous 3 months. Of these, patients already undergone knee arthroplasty, taken glucosamine in the previous 3 months or any intraarticular injection within previous month, having renal and/or hepatic disease, diabetes mellitus or a disabling co-morbidity were excluded.
After giving their written informed consent, patients were assessed at baseline for demographic and clinical characteristics. They were then randomized to receive either glucosamine sulphate or a combination of glucosamine sulphate, Boswellia serrata and curcuminoids twice-daily in a double blind manner for a total period of 90 days. Both the medications were identical in appearance and taste. Treatment of associated disease was allowed at the discretion of the physician. Patients were assessed at baseline and at the end of 90 days. […] VAS was scored from 0 to 10, where 0 indicates no pain/swelling/stiffness and 10 is the worst pain/swelling/stiffness imaginable.
(§1) The Western Ontario McMaster Universities Osteoarthritis Index (WOMAC) (8) was used to evaluate pain, stiffness and physical function of the knee. […] Adherence to trial medication was recorded. Adverse events, patient withdrawals and concomitant illnesses were recorded in accordance with good clinical practice guidelines.
The primary outcome measure was the change in VAS and WOMAC assessment of pain and stiffness in the affected knee. Response to treatment was analysed on an intention to treat basis, and the continuous variables were tested for significance by the standard error of difference in means. Categorical data were expressed as percentages with their 95% confidence intervals (CI). […]

[2] = tested on: patients with osteoarthritis of the knee; assay: Double blind, randomized study in osteoarthritis of the knee: adherence and adverse events; assay type: in vivo, human; conditions: 90-day trial, 50 patients randomized to two groups
Experimental: After giving their written informed consent, patients were assessed at baseline for demographic and clinical characteristics. They were then randomized to receive either glucosamine sulphate or a combination of glucosamine sulphate, Boswellia serrata and curcuminoids twice-daily in a double blind manner for a total period of 90 days. Both the medications were identical in appearance and taste. Treatment of associated disease was allowed at the discretion of the physician. Patients were assessed at baseline and at the end of 90 days. Four separate 10 cm visual analogue scales (VAS) were used to measure pain in affected knee at rest, on movement and the patients overall assessment of swelling and morning stiffness. VAS was scored from 0 to 10, where 0 indicates no pain/swelling/stiffness and 10 is the worst pain/swelling/stiffness imaginable.
as §1, with “knee. The pain and stiffness subscales of the WOMAC have scores of 0-20 and 0-8 respectively, with 0 representing no pain or stiffness.” for “knee.”

N[C@H]1C(O)O[C@H](CO)[C@@H](O)[C@@H]1O.O=S(=O)(O)O (some centres unmarked) [glucosamine sulphate]
Mean (95% CI) decrease in VAS score for morning stiffness [1]: 0.13 | Mean (95% CI) decrease in VAS score for pain on use [1]: 0.27 | Mean (95% CI) decrease in VAS score for swelling [1]: 0.45 | Patients who reported headache [2]: 4 (16.0%) patients (%) | Patients who reported increase in pain [2]: 3 (12.0%) patients (%)
